Experiment: xn = mol fraction of the nth substance listed

CCCCCCCCCCC + CCCCCCCCO
viscosity [mPa·s], 100 kPa
Conditions	x1 = 0.0994	x1 = 0.2003	x1 = 0.2994	x1 = 0.3986	x1 = 0.498	x1 = 0.5983	x1 = 0.6948	x1 = 0.7982	x1 = 0.899
293.15 K	6.831	5.141	3.839	3.004	2.374	1.965	1.669	1.463	1.271
298.15 K	5.749	4.369	3.31	2.622	2.109	1.77	1.542	1.349	1.164
303.15 K	4.874	3.746	2.878	2.322	1.929	1.622	1.402	1.233	1.071
308.15 K	4.161	3.23	2.519	2.063	1.725	1.473	1.281	1.132	0.987
313.15 K	3.577	2.805	2.223	1.847	1.559	1.341	1.175	1.043	0.915
318.15 K	3.091	2.455	1.978	1.67	1.413	1.224	1.079	0.963	0.848
323.15 K	2.694	2.167	1.774	1.507	1.286	1.123	0.996	0.892	0.792

CCCCCCCCCCC + CCCCCCCCCC
298.15 K, 101.33 kPa
Conditions	viscosity [mPa·s]
x2 = 0.1074	1.056
x2 = 0.2094	1.03
x2 = 0.3054	1.009
x2 = 0.4086	0.9854
x2 = 0.5085	0.9556
x2 = 0.608	0.9393
x2 = 0.7092	0.9206
x2 = 0.8045	0.9013
x2 = 0.9056	0.868

OCCCl + c1ccccc1
303.15 K, 101.33 kPa
Conditions	viscosity [mPa·s]
x2 = 0.3365	1.315
x2 = 0.4832	1.008
x2 = 0.6611	0.771
x2 = 0.849	0.613

OCCCO + O
Conditions	viscosity [mPa·s]
293.15 K, 101.33 kPa, x1 = 0.1597	5.035
298.15 K, 101 kPa, x1 = 0.0743	1.975
298.15 K, 101 kPa, x1 = 0.1661	4.203
298.15 K, 101 kPa, x1 = 0.2338	6.223
298.15 K, 101 kPa, x1 = 0.3007	8.667
298.15 K, 101 kPa, x1 = 0.3965	12.43
298.15 K, 101 kPa, x1 = 0.4726	15.67
298.15 K, 101 kPa, x1 = 0.5649	19.7
298.15 K, 101 kPa, x1 = 0.6713	24.72
298.15 K, 101 kPa, x1 = 0.7492	28.53
298.15 K, 101 kPa, x1 = 0.8137	32
298.15 K, 101 kPa, x1 = 0.9572	39.94
298.15 K, 101.3 kPa, x2 = 0.0622	37.15
308.15 K, 101 kPa, x1 = 0.095	1.65
308.15 K, 101 kPa, x1 = 0.1968	4.202
308.15 K, 101 kPa, x1 = 0.3019	6.937
308.15 K, 101 kPa, x1 = 0.4108	9.362
308.15 K, 101 kPa, x1 = 0.495	11.66
308.15 K, 101 kPa, x1 = 0.6009	14.63
308.15 K, 101 kPa, x1 = 0.692	17.5
308.15 K, 101 kPa, x1 = 0.7938	20.41
308.15 K, 101 kPa, x1 = 0.9232	24.43
313.15 K, 101.33 kPa, x1 = 0.5449	11.05
323.15 K, 101.33 kPa, x1 = 0.7523	11.15

OCCCO + C1COCCO1
viscosity [mPa·s], 100 kPa
Conditions	x2 = 0.0996	x2 = 0.2019	x2 = 0.2972	x2 = 0.3986	x2 = 0.4989	x2 = 0.5998	x2 = 0.6951	x2 = 0.8062	x2 = 0.9159
293.15 K	38.51	26.36	17.15	10.05	5.655	3.887	2.715	2.018	1.288
298.15 K	29.32	20.14	12.96	8.427	4.847	3.375	2.402	1.806	1.145
303.15 K	23.39	15.44	10.21	6.477	4.086	2.968	2.14	1.632	1.053

CCN(CC)CC(=O)Nc1c(C)cccc1C + Cc1ccc(C(C)C)c(O)c1
100 kPa, x2 = 0.5
Conditions	viscosity [mPa·s]
293.15 K	177.3
298.15 K	111.3
303.15 K	73.71
308.15 K	51.05
313.15 K	36.76
318.15 K	27.36
323.15 K	20.98

CCCCCCCCCCC + CCCCCCCO
viscosity [mPa·s], 100 kPa
Conditions	x1 = 0.0999	x1 = 0.1998	x1 = 0.3007	x1 = 0.399	x1 = 0.5004	x1 = 0.5988	x1 = 0.7002	x1 = 0.8004	x1 = 0.8983
293.15 K	5.317	4.102	3.124	2.518	2.05	1.798	1.547	1.383	1.239
298.15 K	4.517	3.516	2.713	2.219	1.831	1.626	1.407	1.263	1.137
303.15 K	3.86	3.037	2.378	1.975	1.654	1.47	1.284	1.158	1.048
308.15 K	3.32	2.641	2.202	1.816	1.537	1.342	1.176	1.063	0.968
313.15 K	2.876	2.315	1.956	1.633	1.369	1.229	1.078	0.981	0.896
318.15 K	2.509	2.089	1.751	1.477	1.247	1.128	0.994	0.908	0.833
323.15 K	2.251	1.86	1.575	1.34	1.14	1.04	0.918	0.843	0.777

OCCCl + COC(C)=O
viscosity [mPa·s], 101.33 kPa
Conditions	x1 = 0.1021	x1 = 0.2013	x1 = 0.3049	x1 = 0.4029	x1 = 0.5056	x1 = 0.6047	x1 = 0.7046	x1 = 0.7987	x1 = 0.9014
298.15 K	0.438	0.501	0.587	0.691	0.844	1.039	1.324	1.688	2.234
303.15 K	0.414	0.472	0.555	0.645	0.787	0.954	1.197	1.518	1.978
308.15 K	0.392	0.447	0.519	0.606	0.726	0.881	1.094	1.369	1.762

CN1CCC[C@H]1c1cccnc1 + CC(=O)c1ccccc1
viscosity [mPa·s], 101 kPa
Conditions	x1 = 0.1332	x1 = 0.2426	x1 = 0.3782	x1 = 0.4934	x1 = 0.613	x1 = 0.7431	x1 = 0.8402
298.15 K	1.872	2.198	2.537	2.947	3.238	3.627	3.736
323.15 K	1.162	1.288	1.453	1.551	1.743	1.912	1.962

NC=O + CC(O)CO
viscosity [mPa·s], 101 kPa
Conditions	293.15 K	298.15 K	303.15 K	308.15 K	313.15 K	318.15 K
x1 = 0.0567	41.37	33.51	27.96	23	18.07	14.26
x1 = 0.1191	36.96	29.71	24.4	19.81	15.28	11.93
x1 = 0.1736	–	29.68	–	–	–	–
x1 = 0.1881	33.2	26.49	21.59	17.16	12.95	9.801
x1 = 0.2649	29.41	23.3	18.92	14.86	10.98	8.107
x1 = 0.3159	–	22.75	–	–	–	–
x1 = 0.3409	25.85	20.41	16.5	12.9	9.425	6.875
x1 = 0.4166	–	18.75	–	–	–	–
x1 = 0.4478	21.21	16.73	13.52	10.58	7.704	5.602
x1 = 0.5518	–	14.59	–	–	–	–
x1 = 0.5578	16.8	13.31	10.81	8.506	6.3	4.653
x1 = 0.6017	–	13.69	–	–	–	–
x1 = 0.654	–	12.31	–	–	–	–
x1 = 0.6838	12.2	9.902	8.159	6.542	5.072	3.959
x1 = 0.7347	–	10.26	–	–	–	–
x1 = 0.8117	–	8.254	–	–	–	–
x1 = 0.8295	7.586	6.35	5.433	4.647	3.789	3.144
x1 = 0.8808	–	6.511	–	–	–	–
x1 = 0.8818	6.101	5.206	4.59	4.003	3.386	2.902
x1 = 0.9392	4.756	4.189	3.805	3.401	2.96	2.601
x1 = 0.9434	–	4.916	–	–	–	–

CN1CCC[C@H]1c1cccnc1 + CCCC(=O)O
viscosity [mPa·s], 101 kPa
Conditions	298.15 K	323.15 K
x1 = 0.099	11.74	5.188
x1 = 0.1992	48.69	14.24
x1 = 0.2139	52.39	14.9
x1 = 0.2277	53.82	15.04
x1 = 0.234	53.97	15.13
x1 = 0.2478	54.2	14.99
x1 = 0.2707	53.87	14.89
x1 = 0.2993	50.77	13.9
x1 = 0.3872	29.61	9.46
x1 = 0.5011	17.55	–
x1 = 0.6081	11.63	4.462
x1 = 0.697	8.404	3.766
x1 = 0.804	6.265	2.983
x1 = 0.8928	5.192	2.579

CCOC(=O)CCC(=O)OCC + CC(C)CO
Conditions	viscosity [mPa·s]
303.15 K, 100 kPa, x1 = 0.0999	2.135

CC(=O)[O-].[Na+] + CC(=O)[O-].CC[n+]1ccn(C)c1
Conditions	viscosity [mPa·s]
298.15 K, 101 kPa, x1 = 0.0501	160.5

CCCCCCCCCCC + CCCCCCCCCCCCCCCC
298.15 K, 101.33 kPa
Conditions	viscosity [mPa·s]
x1 = 0.1095	2.783
x1 = 0.2008	2.549
x1 = 0.3116	2.315
x1 = 0.4052	2.108
x1 = 0.5071	1.905
x1 = 0.6081	1.723
x1 = 0.7051	1.534
x1 = 0.806	1.363
x1 = 0.9031	1.209

NC=O + CCC(C)O
101 kPa
Conditions	viscosity [mPa·s]
293.15 K, x1 = 0.5093	4.025
318.15 K, x1 = 0.9024	2.175

CCOC(=O)CCC(=O)OCC + O=C1CCCO1
Conditions	viscosity [mPa·s]
298.15 K, 101 kPa, x2 = 0.95	1.745

Cc1cccc(C(C)C)c1 + Cc1ccc(C(C)C)cc1
101 kPa, x2 = 0.4
Conditions	viscosity [mPa·s]
293.15 K	0.8
313.15 K	0.72

CCN(CC)CC(=O)Nc1c(C)cccc1C + CC(C)[C@@H]1CC[C@@H](C)C[C@H]1O
100 kPa, x2 = 0.667
Conditions	viscosity [mPa·s]
293.15 K	69.38
298.15 K	45.91
303.15 K	31.73
308.15 K	22.78
313.15 K	16.87
318.15 K	12.85
323.15 K	10.02

OCCCl + Cc1ccccc1N
viscosity [mPa·s], 100 kPa
Conditions	x2 = 0.1141	x2 = 0.2148	x2 = 0.3201	x2 = 0.4123	x2 = 0.5121	x2 = 0.6225	x2 = 0.7112	x2 = 0.8184	x2 = 0.9017
303.15 K	2.67	2.744	2.82	2.884	2.953	3.026	3.084	3.151	3.202
308.15 K	2.312	2.378	2.445	2.502	2.562	2.626	2.676	2.734	2.777
313.15 K	1.963	2.031	2.099	2.157	2.219	2.285	2.337	2.396	2.44
318.15 K	1.645	1.711	1.777	1.834	1.893	1.958	2.008	2.067	2.108

OCCCl + OCCO
293.15 K, 101.33 kPa
Conditions	viscosity [mPa·s]
x2 = 0.1328	4.422
x2 = 0.2605	5.484
x2 = 0.3003	5.879
x2 = 0.3636	6.593
x2 = 0.4644	7.922
x2 = 0.5437	9.223
x2 = 0.6211	10.66
x2 = 0.6983	12.26
x2 = 0.7424	13.29
x2 = 0.8141	15.21
x2 = 0.8422	15.98
x2 = 0.9168	18.26

CN1CCC[C@H]1c1cccnc1 + CCO
viscosity [mPa·s], 101.33 kPa
Conditions	298.15 K	323.15 K
x1 = 0.0501	1.468	0.8557
x1 = 0.1104	1.756	1.03
x1 = 0.1524	1.941	1.123
x1 = 0.2923	2.477	1.376
x1 = 0.3425	2.652	1.482
x1 = 0.4474	3.004	1.703
x1 = 0.4676	3.008	1.764
x1 = 0.5898	3.224	1.784
x1 = 0.6839	3.497	1.88
x1 = 0.7725	3.564	1.961
x1 = 0.8957	3.801	2.026
x1 = 0.8976	3.803	2.026

Source: the CheMixHub viscosity set
